Data published in ChEMBL document CHEMBL3611972, “Leishmanicidal, antiproteolytic, and mutagenic evaluation of alkyltriazoles and alkylphosphocholines” (Eur J Med Chem, 2015).

Assays:
[1] = tested on: Salmonella typhimurium; test: Mutagenicity in Salmonella typhimurium TA98 assessed as mutagenicity index at 1454.55 uM/plate incubated for 90 mins at 37 degC in presence of liver S9 fractions by Ames test relative to control; assay type: toxicity, organism-based; conditions: salmonella enterica subsp. enterica serovar typhimurium, s9, 1.5 h
[2] = Mutagenicity in CHOK1 cells assessed as induction of chromosomal DNA mutation by measuring micronuclei level at 14.51 to 58.04 incubated for 3 hrs by cytokinesis-block micronucleus assay; assay type: toxicity, cell-based, Cricetulus griseus; conditions: chinese hamster, cho-k1, 3 h
[3] = tested on: Salmonella typhimurium; test: Mutagenicity in Salmonella typhimurium TA100 assessed as mutagenicity index at 905.66 uM/plate incubated for 90 mins at 37 degC in absence of liver S9 fractions by Ames test relative to control; assay type: toxicity, organism-based; conditions: salmonella enterica subsp. enterica serovar typhimurium, 1.5 h
[4] = tested on: Salmonella typhimurium; test: Mutagenicity in Salmonella typhimurium TA97a assessed as mutagenicity index at 313.73 uM/plate incubated for 90 mins at 37 degC in absence of liver S9 fractions by Ames test relative to control; assay type: toxicity, organism-based; conditions: salmonella enterica subsp. enterica serovar typhimurium, 1.5 h
[5] = tested on: Salmonella typhimurium; test: Mutagenicity in Salmonella typhimurium TA98 assessed as mutagenicity index at 616.38 uM/plate incubated for 90 mins at 37 degC in presence of liver S9 fractions by Ames test relative to control; assay type: toxicity, organism-based; conditions: salmonella enterica subsp. enterica serovar typhimurium, s9, 1.5 h
[6] = tested on: Salmonella typhimurium; test: Mutagenicity in Salmonella typhimurium TA102 assessed as mutagenicity index at 1454.55 uM/plate incubated for 90 mins at 37 degC in presence of liver S9 fractions by Ames test relative to control; assay type: toxicity, organism-based; conditions: salmonella enterica subsp. enterica serovar typhimurium, s9, 1.5 h
[7] = tested on: Salmonella typhimurium; test: Mutagenicity in Salmonella typhimurium TA100 assessed as mutagenicity index at 1454.55 uM/plate incubated for 90 mins at 37 degC in presence of liver S9 fractions by Ames test relative to control; assay type: toxicity, organism-based; conditions: salmonella enterica subsp. enterica serovar typhimurium, s9, 1.5 h
[8] = Mutagenicity in CHOK1 cells assessed as induction of chromosomal DNA mutation by measuring nuclear division index level at 14.51 to 58.04 incubated for 3 hrs by fluorescence microscopy; assay type: toxicity, cell-based, Cricetulus griseus; conditions: chinese hamster, cho-k1, 3 h
[9] = tested on: Salmonella typhimurium; test: Mutagenicity in Salmonella typhimurium TA102 assessed as mutagenicity index at 1185.19 uM/plate incubated for 90 mins at 37 degC in presence of liver S9 fractions by Ames test relative to control; assay type: toxicity, organism-based; conditions: salmonella enterica subsp. enterica serovar typhimurium, s9, 1.5 h
[10] = tested on: Salmonella typhimurium; test: Mutagenicity in Salmonella typhimurium TA100 assessed as mutagenicity index at 313.73 uM/plate incubated for 90 mins at 37 degC in absence of liver S9 fractions by Ames test relative to control; assay type: toxicity, organism-based; conditions: salmonella enterica subsp. enterica serovar typhimurium, 1.5 h
[11] = tested on: Salmonella typhimurium; test: Mutagenicity in Salmonella typhimurium TA97a assessed as mutagenicity index at 616.38 uM/plate incubated for 90 mins at 37 degC in presence of liver S9 fractions by Ames test relative to control; assay type: toxicity, organism-based; conditions: salmonella enterica subsp. enterica serovar typhimurium, s9, 1.5 h
[12] = tested on: Salmonella typhimurium; test: Mutagenicity in Salmonella typhimurium TA97a assessed as mutagenicity index at 313.73 uM/plate incubated for 90 mins at 37 degC in presence of liver S9 fractions by Ames test relative to control; assay type: toxicity, organism-based; conditions: salmonella enterica subsp. enterica serovar typhimurium, s9, 1.5 h
[13] = tested on: Salmonella typhimurium; test: Mutagenicity in Salmonella typhimurium TA100 assessed as mutagenicity index at 296.15 uM/plate incubated for 90 mins at 37 degC in presence of liver S9 fractions by Ames test relative to untreated control; assay type: toxicity, organism-based; conditions: salmonella enterica subsp. enterica serovar typhimurium, s9, 1.5 h
[14] = tested on: Salmonella typhimurium; test: Mutagenicity in Salmonella typhimurium TA102 assessed as mutagenicity index at 570.37 uM/plate incubated for 90 mins at 37 degC in presence of liver S9 fractions by Ames test relative to untreated control; assay type: toxicity, organism-based; conditions: salmonella enterica subsp. enterica serovar typhimurium, s9, 1.5 h
[15] = tested on: Salmonella typhimurium; test: Mutagenicity in Salmonella typhimurium TA97a assessed as mutagenicity index at 296.15 uM/plate incubated for 90 mins at 37 degC in absence of liver S9 fractions by Ames test relative to untreated control; assay type: toxicity, organism-based; conditions: salmonella enterica subsp. enterica serovar typhimurium, 1.5 h
[16] = tested on: Salmonella typhimurium; test: Mutagenicity in Salmonella typhimurium TA97a assessed as mutagenicity index at 570.37 uM/plate incubated for 90 mins at 37 degC in absence of liver S9 fractions by Ames test relative to untreated control; assay type: toxicity, organism-based; conditions: salmonella enterica subsp. enterica serovar typhimurium, 1.5 h
[17] = tested on: Salmonella typhimurium; test: Mutagenicity in Salmonella typhimurium TA100 assessed as mutagenicity index at 700.00 uM/plate incubated for 90 mins at 37 degC in absence of liver S9 fractions by Ames test relative to untreated control; assay type: toxicity, organism-based; conditions: salmonella enterica subsp. enterica serovar typhimurium, 1.5 h
[18] = tested on: Salmonella typhimurium; test: Mutagenicity in Salmonella typhimurium TA98 assessed as mutagenicity index at 570.37 uM/plate incubated for 90 mins at 37 degC in presence of liver S9 fractions by Ames test relative to untreated control; assay type: toxicity, organism-based; conditions: salmonella enterica subsp. enterica serovar typhimurium, s9, 1.5 h
[19] = tested on: Salmonella typhimurium; test: Mutagenicity in Salmonella typhimurium TA100 assessed as mutagenicity index at 570.37 uM/plate incubated for 90 mins at 37 degC in presence of liver S9 fractions by Ames test relative to untreated control; assay type: toxicity, organism-based; conditions: salmonella enterica subsp. enterica serovar typhimurium, s9, 1.5 h
[20] = tested on: Salmonella typhimurium; test: Mutagenicity in Salmonella typhimurium TA97a assessed as mutagenicity index at 435.85 uM/plate incubated for 90 mins at 37 degC in absence of liver S9 fractions by Ames test relative to untreated control; assay type: toxicity, organism-based; conditions: salmonella enterica subsp. enterica serovar typhimurium, 1.5 h
[21] = tested on: Salmonella typhimurium; test: Mutagenicity in Salmonella typhimurium TA98 assessed as mutagenicity index at 296.15 uM/plate incubated for 90 mins at 37 degC in absence of liver S9 fractions by Ames test relative to untreated control; assay type: toxicity, organism-based; conditions: salmonella enterica subsp. enterica serovar typhimurium, 1.5 h
[22] = tested on: Salmonella typhimurium; test: Mutagenicity in Salmonella typhimurium TA102 assessed as mutagenicity index at 150.98 uM/plate incubated for 90 mins at 37 degC in absence of liver S9 fractions by Ames test relative to untreated control; assay type: toxicity, organism-based; conditions: salmonella enterica subsp. enterica serovar typhimurium, 1.5 h
[23] = tested on: Salmonella typhimurium; test: Mutagenicity in Salmonella typhimurium TA97a assessed as mutagenicity index at 700.00 uM/plate incubated for 90 mins at 37 degC in presence of liver S9 fractions by Ames test relative to untreated control; assay type: toxicity, organism-based; conditions: salmonella enterica subsp. enterica serovar typhimurium, s9, 1.5 h
[24] = tested on: Salmonella typhimurium; test: Mutagenicity in Salmonella typhimurium TA102 assessed as mutagenicity index at 700.00 uM/plate incubated for 90 mins at 37 degC in presence of liver S9 fractions by Ames test relative to untreated control; assay type: toxicity, organism-based; conditions: salmonella enterica subsp. enterica serovar typhimurium, s9, 1.5 h
[25] = tested on: Salmonella typhimurium; test: Mutagenicity in Salmonella typhimurium TA97a assessed as mutagenicity index at 296.15 uM/plate incubated for 90 mins at 37 degC in presence of liver S9 fractions by Ames test relative to untreated control; assay type: toxicity, organism-based; conditions: salmonella enterica subsp. enterica serovar typhimurium, s9, 1.5 h
[26] = Mutagenicity in CHOK1 cells assessed as induction of chromosomal DNA mutation by measuring micronuclei level at 6.41 to 25.63 incubated for 3 hrs by cytokinesis-block micronucleus assay; assay type: toxicity, cell-based, Cricetulus griseus; conditions: chinese hamster, cho-k1, 3 h
[27] = tested on: Salmonella typhimurium; test: Mutagenicity in Salmonella typhimurium TA97a assessed as mutagenicity index at 150.98 uM/plate incubated for 90 mins at 37 degC in absence of liver S9 fractions by Ames test relative to untreated control; assay type: toxicity, organism-based; conditions: salmonella enterica subsp. enterica serovar typhimurium, 1.5 h
[28] = tested on: Salmonella typhimurium; test: Mutagenicity in Salmonella typhimurium TA98 assessed as mutagenicity index at 296.15 uM/plate incubated for 90 mins at 37 degC in presence of liver S9 fractions by Ames test relative to untreated control; assay type: toxicity, organism-based; conditions: salmonella enterica subsp. enterica serovar typhimurium, s9, 1.5 h
[29] = Mutagenicity in CHOK1 cells assessed as induction of chromosomal DNA mutation by measuring nuclear division index level at 6.41 to 25.63 incubated for 3 hrs by fluorescence microscopy; assay type: toxicity, cell-based, Cricetulus griseus; conditions: chinese hamster, cho-k1, 3 h
[30] = tested on: Salmonella typhimurium; test: Mutagenicity in Salmonella typhimurium TA98 assessed as mutagenicity index at 700.00 uM/plate incubated for 90 mins at 37 degC in presence of liver S9 fractions by Ames test relative to untreated control; assay type: toxicity, organism-based; conditions: salmonella enterica subsp. enterica serovar typhimurium, s9, 1.5 h
[31] = tested on: Salmonella typhimurium; test: Mutagenicity in Salmonella typhimurium TA102 assessed as mutagenicity index at 700.00 uM/plate incubated for 90 mins at 37 degC in absence of liver S9 fractions by Ames test relative to untreated control; assay type: toxicity, organism-based; conditions: salmonella enterica subsp. enterica serovar typhimurium, 1.5 h

CCOC(=O)c1cn(CCCCCCCCCOS(C)(=O)=O)nn1
Activity_index [1]: 0.8
Activity [2]: Non-toxic
Activity_index [3]: 1.2
Activity_index [4]: 1.3
Activity_index [5]: 0.8
Activity_index [6]: 1.2
Activity_index [7]: 0.9
Activity [8]: Non-toxic
Activity_index [9]: 1.4
Activity_index [10]: 1.2
Activity_index [11]: 0.9
Activity_index [12]: 0.8

CS(=O)(=O)OCCCCCCCCCCCCn1cc(CCCO)nn1
Activity_index [13]: 0.9
Activity_index [14]: 1.4
Activity_index [15]: 1.1
Activity_index [16]: 0.9
Activity_index [17]: 1
Activity_index [18]: 0.8
Activity_index [19]: 0.8
Activity_index [20]: 1.2
Activity_index [21]: 1.2
Activity_index [22]: 1.1
Activity_index [23]: 0.8
Activity_index [24]: 1.4
Activity_index [25]: 0.9
Activity [26]: Non-toxic
Activity_index [27]: 1.3
Activity_index [28]: 1.1
Activity [29]: Non-toxic
Activity_index [30]: 1.2
Activity_index [31]: 1
